Measured values as given in patent US20140315975A1, “APOPTOSIS-INDUCING AGENT” (NITTO DENKO CORPORATION, priority 2011, published 2014).

Tested on: RAS/Raf/MAPK signal cascade
Experiment: Western blot of protein involved in RAS/Raf/MAPK signal cascade
Format: cell-based
Settings: M7609 cells
Experimental: A western blot analysis for the main protein involved in the RAS/Raf/MAPK signal cascade was carried out in the same way as for (3) above using cells harvested on the 2nd day after transfection with GST-π siRNA. As antibodies, in addition to anti-GST-π antibody, anti-p-Raf-1 (Ser338) antibody (MILLIPORE), anti-Raf-1 antibody (Santa Cruz), anti-p-MEK1/2 (Ser217/221) antibody (Cell Signaling), anti-MEK1/2 antibody (Cell Signaling), anti-p-ERK1/2 (Thr202/Tyr204) antibody (Cell Signaling), anti-ERK antibody (Cell Signaling), and anti-GAPDH antibody (Abcam) were used.

## GST-π siRNA: GST-π siRNA (SEQ ID No: 1: GGGAGGCAAGACCUUCAUUTT, siRNA ID#2385, Ambion) (chemistry not given here)
2nd day after transfection (FIG. 2)
  expression level of Raf protein: decreases
2nd day after transfection, compared with Scramble siRNA (FIG. 2)
  phosphorylation of proteins involved in the RAS/Raf/MAPK signal cascade: decreased
